Measurements published in PubChem BioAssay (NCI).
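Five concentrations, 48 hours, 96-well plates. At the GI50, growth is halved. Definition used: TGI = concentration required for complete inhibition of growth.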

Tested on: HOP-62 NSCLC
Test: inhibition of tumour cell growth, NCI panel, 48 h

SMILES	GI50 [µM]	TGI [µM]
COc1cc2c3c(n(CCCCl)c(=O)c2cc1OC)-c1ccccc1C3=O	4.49	44.5
COc1cc(C2c3cc4c(cc3[C@@H](Nc3ccccc3)C3CO[C@@H](OC)[C@H]23)OCO4)cc(OC)c1O (some centres not stated)		> 25
CCOC(=O)c1c(SC(=O)/C=C/c2ccccc2)n(-c2ccccc2)c(=S)n(-c2ccccc2)c1=O		> 100
COC(=O)c1ccc2c(c1)n(Cc1ccc3ccccc3c1)c[n+]2Cc1ccc2ccccc2c1	1.8	4.28

Tested on: HOP-92 NSCLC
Test: inhibition of tumour cell growth, NCI panel, 48 h

SMILES	GI50 [µM]	TGI [µM]
C=C1C(=O)O[C@H]2[C@H]1CC/C(COC(=O)/C=C\C(=O)NCc1ccc(Cn3c(=O)sn(-c4ccc(C#N)cc4)c3=O)cc1)=C\CC[C@@]1(C)O[C@@H]21	0.622	1.45
COc1cc2c3c(n(CCCCl)c(=O)c2cc1OC)-c1ccccc1C3=O	78.8	> 100
CCOC(=O)c1c(SC(=O)/C=C/c2ccccc2)n(-c2ccccc2)c(=S)n(-c2ccccc2)c1=O		> 100

Tested on: HS 578T breast
Test: inhibition of tumour cell growth, NCI panel, 48 h

SMILES	GI50 [µM]	TGI [µM]
C=C1C(=O)O[C@H]2[C@H]1CC/C(COC(=O)/C=C\C(=O)NCc1ccc(Cn3c(=O)sn(-c4ccc(C#N)cc4)c3=O)cc1)=C\CC[C@@]1(C)O[C@@H]21	0.987	2.79
COc1cc2c3c(n(CCCCl)c(=O)c2cc1OC)-c1ccccc1C3=O	23.5	> 100
COc1cc(C2c3cc4c(cc3[C@@H](Nc3ccccc3)C3CO[C@@H](OC)[C@H]23)OCO4)cc(OC)c1O (some centres not stated)		17.3
CCOC(=O)c1c(SC(=O)/C=C/c2ccccc2)n(-c2ccccc2)c(=S)n(-c2ccccc2)c1=O		> 100
COC(=O)c1ccc2c(c1)n(Cc1ccc3ccccc3c1)c[n+]2Cc1ccc2ccccc2c1	1.76	4.65

Tested on: HT29 colon
Test: inhibition of tumour cell growth, NCI panel, 48 h

SMILES	GI50 [µM]	TGI [µM]
C=C1C(=O)O[C@H]2[C@H]1CC/C(COC(=O)/C=C\C(=O)NCc1ccc(Cn3c(=O)sn(-c4ccc(C#N)cc4)c3=O)cc1)=C\CC[C@@]1(C)O[C@@H]21	0.474	1.9
COc1cc(C2c3cc4c(cc3[C@@H](Nc3ccccc3)C3CO[C@@H](OC)[C@H]23)OCO4)cc(OC)c1O (some centres not stated)		10.7
CCOC(=O)c1c(SC(=O)/C=C/c2ccccc2)n(-c2ccccc2)c(=S)n(-c2ccccc2)c1=O		> 100

Tested on: IGROV1 ovarian
Test: inhibition of tumour cell growth, NCI panel, 48 h

SMILES	GI50 [µM]	TGI [µM]
C=C1C(=O)O[C@H]2[C@H]1CC/C(COC(=O)/C=C\C(=O)NCc1ccc(Cn3c(=O)sn(-c4ccc(C#N)cc4)c3=O)cc1)=C\CC[C@@]1(C)O[C@@H]21	0.592	1.3
COc1cc(C2c3cc4c(cc3[C@@H](Nc3ccccc3)C3CO[C@@H](OC)[C@H]23)OCO4)cc(OC)c1O (some centres not stated)		> 25
CCOC(=O)c1c(SC(=O)/C=C/c2ccccc2)n(-c2ccccc2)c(=S)n(-c2ccccc2)c1=O		> 100

Tested on: K-562 leukemia
Test: inhibition of tumour cell growth, NCI panel, 48 h

SMILES	GI50 [µM]	TGI [µM]
C=C1C(=O)O[C@H]2[C@H]1CC/C(COC(=O)/C=C\C(=O)NCc1ccc(Cn3c(=O)sn(-c4ccc(C#N)cc4)c3=O)cc1)=C\CC[C@@]1(C)O[C@@H]21	0.707	50
COc1cc2c3c(n(CCCCl)c(=O)c2cc1OC)-c1ccccc1C3=O	> 100	> 100
COc1cc(C2c3cc4c(cc3[C@@H](Nc3ccccc3)C3CO[C@@H](OC)[C@H]23)OCO4)cc(OC)c1O (some centres not stated)		> 25
CCOC(=O)c1c(SC(=O)/C=C/c2ccccc2)n(-c2ccccc2)c(=S)n(-c2ccccc2)c1=O		> 100
CC(=O)OC[C@]12CC[C@H]3[C@@H](C[C@H]4O[C@]45CC=CC(=O)[C@]35C)[C@]1(O)CC[C@@]2(O)[C@@](C)(O)C1CC(C)=C(C)C(=O)O1 (some centres not stated)		> 100

Tested on: KM12 colon
Test: inhibition of tumour cell growth, NCI panel, 48 h

SMILES	GI50 [µM]	TGI [µM]
C=C1C(=O)O[C@H]2[C@H]1CC/C(COC(=O)/C=C\C(=O)NCc1ccc(Cn3c(=O)sn(-c4ccc(C#N)cc4)c3=O)cc1)=C\CC[C@@]1(C)O[C@@H]21	0.9	1.84
COc1cc2c3c(n(CCCCl)c(=O)c2cc1OC)-c1ccccc1C3=O	> 100	> 100
COc1cc(C2c3cc4c(cc3[C@@H](Nc3ccccc3)C3CO[C@@H](OC)[C@H]23)OCO4)cc(OC)c1O (some centres not stated)		> 25
CCOC(=O)c1c(SC(=O)/C=C/c2ccccc2)n(-c2ccccc2)c(=S)n(-c2ccccc2)c1=O		> 100
COC(=O)c1ccc2c(c1)n(Cc1ccc3ccccc3c1)c[n+]2Cc1ccc2ccccc2c1	1.37	2.83

Tested on: LOX IMVI melanoma
Test: inhibition of tumour cell growth, NCI panel, 48 h

SMILES	GI50 [µM]	TGI [µM]
C=C1C(=O)O[C@H]2[C@H]1CC/C(COC(=O)/C=C\C(=O)NCc1ccc(Cn3c(=O)sn(-c4ccc(C#N)cc4)c3=O)cc1)=C\CC[C@@]1(C)O[C@@H]21	0.437	1.16
COc1cc2c3c(n(CCCCl)c(=O)c2cc1OC)-c1ccccc1C3=O	8.83	> 100
CCOC(=O)c1c(SC(=O)/C=C/c2ccccc2)n(-c2ccccc2)c(=S)n(-c2ccccc2)c1=O		> 100

Tested on: M14 melanoma
Test: inhibition of tumour cell growth, NCI panel, 48 h

SMILES	GI50 [µM]	TGI [µM]
C=C1C(=O)O[C@H]2[C@H]1CC/C(COC(=O)/C=C\C(=O)NCc1ccc(Cn3c(=O)sn(-c4ccc(C#N)cc4)c3=O)cc1)=C\CC[C@@]1(C)O[C@@H]21	0.699	1.66
COc1cc2c3c(n(CCCCl)c(=O)c2cc1OC)-c1ccccc1C3=O	5.96	> 100
COc1cc(C2c3cc4c(cc3[C@@H](Nc3ccccc3)C3CO[C@@H](OC)[C@H]23)OCO4)cc(OC)c1O (some centres not stated)		> 25
CCOC(=O)c1c(SC(=O)/C=C/c2ccccc2)n(-c2ccccc2)c(=S)n(-c2ccccc2)c1=O		> 100

Tested on: MALME-3M melanoma
Test: inhibition of tumour cell growth, NCI panel, 48 h

SMILES	GI50 [µM]	TGI [µM]
C=C1C(=O)O[C@H]2[C@H]1CC/C(COC(=O)/C=C\C(=O)NCc1ccc(Cn3c(=O)sn(-c4ccc(C#N)cc4)c3=O)cc1)=C\CC[C@@]1(C)O[C@@H]21	0.83	1.58
CCOC(=O)c1c(SC(=O)/C=C/c2ccccc2)n(-c2ccccc2)c(=S)n(-c2ccccc2)c1=O		> 100

Tested on: MCF7 breast
Test: inhibition of tumour cell growth, NCI panel, 48 h

SMILES	GI50 [µM]	TGI [µM]
COc1cc2c3c(n(CCCCl)c(=O)c2cc1OC)-c1ccccc1C3=O	8.9	> 100
COc1cc(C2c3cc4c(cc3[C@@H](Nc3ccccc3)C3CO[C@@H](OC)[C@H]23)OCO4)cc(OC)c1O (some centres not stated)		> 25
CCOC(=O)c1c(SC(=O)/C=C/c2ccccc2)n(-c2ccccc2)c(=S)n(-c2ccccc2)c1=O		> 100
CC(=O)OC[C@]12CC[C@H]3[C@@H](C[C@H]4O[C@]45CC=CC(=O)[C@]35C)[C@]1(O)CC[C@@]2(O)[C@@](C)(O)C1CC(C)=C(C)C(=O)O1 (some centres not stated)		> 25.3

Tested on: MDA-MB-231 breast
Test: inhibition of tumour cell growth, NCI panel, 48 h

SMILES	GI50 [µM]	TGI [µM]
C=C1C(=O)O[C@H]2[C@H]1CC/C(COC(=O)/C=C\C(=O)NCc1ccc(Cn3c(=O)sn(-c4ccc(C#N)cc4)c3=O)cc1)=C\CC[C@@]1(C)O[C@@H]21	0.72	1.74
COc1cc2c3c(n(CCCCl)c(=O)c2cc1OC)-c1ccccc1C3=O	37	> 100
CCOC(=O)c1c(SC(=O)/C=C/c2ccccc2)n(-c2ccccc2)c(=S)n(-c2ccccc2)c1=O		> 100
CC(=O)OC[C@]12CC[C@H]3[C@@H](C[C@H]4O[C@]45CC=CC(=O)[C@]35C)[C@]1(O)CC[C@@]2(O)[C@@](C)(O)C1CC(C)=C(C)C(=O)O1 (some centres not stated)		> 23.6

Tested on: MDA-MB-435
Test: inhibition of tumour cell growth, NCI panel, 48 h

SMILES	GI50 [µM]	TGI [µM]
C=C1C(=O)O[C@H]2[C@H]1CC/C(COC(=O)/C=C\C(=O)NCc1ccc(Cn3c(=O)sn(-c4ccc(C#N)cc4)c3=O)cc1)=C\CC[C@@]1(C)O[C@@H]21	0.744	1.5
COc1cc2c3c(n(CCCCl)c(=O)c2cc1OC)-c1ccccc1C3=O	> 100	> 100
COc1cc(C2c3cc4c(cc3[C@@H](Nc3ccccc3)C3CO[C@@H](OC)[C@H]23)OCO4)cc(OC)c1O (some centres not stated)		> 25
CCOC(=O)c1c(SC(=O)/C=C/c2ccccc2)n(-c2ccccc2)c(=S)n(-c2ccccc2)c1=O		> 100
COC(=O)c1ccc2c(c1)n(Cc1ccc3ccccc3c1)c[n+]2Cc1ccc2ccccc2c1	1.33	2.75

Tested on: MOLT-4 leukemia
Test: inhibition of tumour cell growth, NCI panel, 48 h

SMILES	GI50 [µM]	TGI [µM]
C=C1C(=O)O[C@H]2[C@H]1CC/C(COC(=O)/C=C\C(=O)NCc1ccc(Cn3c(=O)sn(-c4ccc(C#N)cc4)c3=O)cc1)=C\CC[C@@]1(C)O[C@@H]21	0.84	4.82
COc1cc2c3c(n(CCCCl)c(=O)c2cc1OC)-c1ccccc1C3=O	2.18	96.6
COc1cc(C2c3cc4c(cc3[C@@H](Nc3ccccc3)C3CO[C@@H](OC)[C@H]23)OCO4)cc(OC)c1O (some centres not stated)		6.34
CCOC(=O)c1c(SC(=O)/C=C/c2ccccc2)n(-c2ccccc2)c(=S)n(-c2ccccc2)c1=O		> 100
CC(=O)OC[C@]12CC[C@H]3[C@@H](C[C@H]4O[C@]45CC=CC(=O)[C@]35C)[C@]1(O)CC[C@@]2(O)[C@@](C)(O)C1CC(C)=C(C)C(=O)O1 (some centres not stated)		> 36.2

Tested on: NCI-H226 lung
Test: inhibition of tumour cell growth, NCI panel, 48 h

SMILES	GI50 [µM]	TGI [µM]
C=C1C(=O)O[C@H]2[C@H]1CC/C(COC(=O)/C=C\C(=O)NCc1ccc(Cn3c(=O)sn(-c4ccc(C#N)cc4)c3=O)cc1)=C\CC[C@@]1(C)O[C@@H]21	1.36	5.63
CCOC(=O)c1c(SC(=O)/C=C/c2ccccc2)n(-c2ccccc2)c(=S)n(-c2ccccc2)c1=O		> 100
CC(=O)OC[C@]12CC[C@H]3[C@@H](C[C@H]4O[C@]45CC=CC(=O)[C@]35C)[C@]1(O)CC[C@@]2(O)[C@@](C)(O)C1CC(C)=C(C)C(=O)O1 (some centres not stated)		> 20
COC(=O)c1ccc2c(c1)n(Cc1ccc3ccccc3c1)c[n+]2Cc1ccc2ccccc2c1	1.96	4.44

Tested on: NCI-H23 lung
Test: inhibition of tumour cell growth, NCI panel, 48 h

SMILES	GI50 [µM]	TGI [µM]
C=C1C(=O)O[C@H]2[C@H]1CC/C(COC(=O)/C=C\C(=O)NCc1ccc(Cn3c(=O)sn(-c4ccc(C#N)cc4)c3=O)cc1)=C\CC[C@@]1(C)O[C@@H]21	0.861	1.81
COc1cc2c3c(n(CCCCl)c(=O)c2cc1OC)-c1ccccc1C3=O	97.3	> 100
